From ChEMBL document CHEMBL1143799, “Synthesis and primary cytotoxicity evaluation of new imidazo[2,1-b]thiazole derivatives” (2007)

Columns and labels:
Assay type in all cases: functional
COLO 205 = assay: Growth inhibition of human COLO205 cells after 48 hrs by SRB protein assay; conditions: COLO 205, 48 h
UACC-62 = assay: Growth inhibition of human UACC62 cells after 48 hrs by SRB protein assay; conditions: UACC-62, 48 h
SW-620 = assay: Growth inhibition of human SW620 cells after 48 hrs by SRB protein assay; conditions: SW-620, 48 h
CAKI-1 = assay: Growth inhibition of human CAKI1 cells after 48 hrs by SRB protein assay; conditions: CAKI-1, 48 h
T47D = assay: Growth inhibition of human T47D cells after 48 hrs by SRB protein assay
UO-31 = assay: Growth inhibition of human UO31 cells after 48 hrs by SRB protein assay; conditions: UO-31, 48 h
HOP-92 = assay: Growth inhibition of human HOP92 cells after 48 hrs by SRB protein assay; conditions: HOP-92, 48 h
HCT-15 = assay: Growth inhibition of human HCT15 cells after 48 hrs by SRB protein assay; conditions: HCT-15, 48 h
MDA-MB-435 = assay: Growth inhibition of human MDA-MB-435 cells after 48 hrs by SRB protein assay; conditions: MDA-MB-435, 48 h
HOP-62 = assay: Growth inhibition of human HOP62 cells after 48 hrs by SRB protein assay; conditions: HOP-62, 48 h
OVCAR-5 = assay: Growth inhibition of human OVCAR5 cells after 48 hrs by SRB protein assay; conditions: OVCAR-5, 48 h
SNB-75 = assay: Growth inhibition of human SNB75 cells after 48 hrs by SRB protein assay; conditions: SNB-75, 48 h
EKVX = assay: Growth inhibition of human EKVX cells after 48 hrs by SRB protein assay
SK-OV-3 = assay: Growth inhibition of human SK-OV-3 cells after 48 hrs by SRB protein assay; conditions: SK-OV-3, 48 h
SK-MEL-5 = assay: Growth inhibition of human SK-MEL-5 cells after 48 hrs by SRB protein assay; conditions: SK-MEL-5, 48 h
HCC 2998 = assay: Growth inhibition of human HCC2998 cells after 48 hrs by SRB protein assay; conditions: HCC 2998, 48 h
KM12 = assay: Growth inhibition of human KM12 cells after 48 hrs by SRB protein assay; conditions: KM12, 48 h
RXF 393 = assay: Growth inhibition of human RXF393 cells after 48 hrs by SRB protein assay; conditions: RXF 393, 48 h
Hs-578T = assay: Growth inhibition of human HS578T cells after 48 hrs by SRB protein assay
DU-145 = assay: Growth inhibition of human DU145 cells after 48 hrs by SRB protein assay; conditions: DU-145, 48 h
NCI-H460 = assay: Growth inhibition of human NCI-H460 cells after 48 hrs by SRB protein assay; conditions: NCI-H460, 48 h
OVCAR-3 = assay: Growth inhibition of human OVCAR-3 cells after 48 hrs by SRB protein assay; conditions: OVCAR-3, 48 h
MDA-MB-231 = assay: Growth inhibition of MDA-MB-231 cells after 48 hrs by SRB protein assay; conditions: Homo sapiens, MDA-MB-231, 48 h
SNB-19 = assay: Growth inhibition of human SNB19 cells after 48 hrs by SRB protein assay; conditions: SNB-19, 48 h
HCT-116 = assay: Growth inhibition of human HCT116 cells after 48 hrs by SRB protein assay; conditions: HCT-116, 48 h
SF-268 = assay: Growth inhibition of human SF268 cells after 48 hrs by SRB protein assay; conditions: SF-268, 48 h
SK-MEL-28 = assay: Growth inhibition of human SK-MEL-28 cells after 48 hrs by SRB protein assay; conditions: SK-MEL-28, 48 h
SF-539 = assay: Growth inhibition of human SF539 cells after 48 hrs by SRB protein assay; conditions: SF-539, 48 h
OVCAR-8 = assay: Growth inhibition of human OVCAR8 cells after 48 hrs by SRB protein assay; conditions: OVCAR-8, 48 h
NCI-H23 = assay: Growth inhibition of human NCI-H23 cells after 48 hrs by SRB protein assay; conditions: NCI-H23, 48 h
NCI-H522 = assay: Growth inhibition of human NCI-H522 cells after 48 hrs by SRB protein assay; conditions: NCI-H522, 48 h
PC-3 = assay: Growth inhibition of human PC3 cells after 48 hrs by SRB protein assay; conditions: PC-3, 48 h
M14 = assay: Growth inhibition of human M14 cells after 48 hrs by SRB protein assay; conditions: M14, 48 h
CCRF-CEM = assay: Growth inhibition of human CCRF-CEM cells after 48 hrs by SRB protein assay
IGROV-1 = assay: Growth inhibition of human IGROV1 cells after 48 hrs by SRB protein assay; conditions: IGROV-1, 48 h
SN12C = assay: Growth inhibition of human SN12C cells after 48 hrs by SRB protein assay
MCF7 = assay: Growth inhibition of human MCF7 cells after 48 hrs by SRB protein assay; conditions: MCF7, 48 h
HT-29 = assay: Growth inhibition of human HT29 cells after 48 hrs by SRB protein assay; conditions: HT-29, 48 h
UACC-257 = assay: Growth inhibition of human UACC257 cells after 48 hrs by SRB protein assay; conditions: UACC-257, 48 h

**Q.** For `COc1cccc(OC)c1/C=N/NC(=O)Cc1csc2nc(-c3ccc(Br)cc3)cn12`, which GI50 (COLO 205) is on record?
**A.** 35.5 µM

**Q.** And the TGI (COLO 205; read-out: Log TGI (converted))?
**A.** > 100 µM

**Q.** And the GI50 (UACC-62)?
**A.** 12 µM

**Q.** What about the TGI (UACC-62; read-out: Log TGI (converted)) of the same molecule?
**A.** 27.5 µM

**Q.** What about the GI50 (SW-620) of the same molecule?
**A.** 6.46 µM

**Q.** And the TGI (SW-620; read-out: Log TGI (converted))?
**A.** 49 µM

**Q.** And the GI50 (CAKI-1)?
**A.** 12.6 µM

**Q.** And the TGI (CAKI-1; read-out: Log TGI (converted))?
**A.** 33.9 µM

**Q.** And the GI50 (T47D)?
**A.** 40.7 µM

**Q.** What about the TGI (T47D; read-out: Log TGI (converted)) of the same molecule?
**A.** > 100 µM

**Q.** What about the GI50 (UO-31) of the same molecule?
**A.** 60.3 µM

**Q.** What about the TGI (UO-31; read-out: Log TGI (converted)) of the same molecule?
**A.** > 100 µM

**Q.** What about the GI50 (HOP-92) of the same molecule?
**A.** 13.8 µM

**Q.** And the TGI (HOP-92; read-out: Log TGI (converted))?
**A.** 35.5 µM

**Q.** And the GI50 (HCT-15)?
**A.** 7.41 µM

**Q.** What about the TGI (HCT-15; read-out: Log TGI (converted)) of the same molecule?
**A.** 64.6 µM

**Q.** What about the GI50 (MDA-MB-435) of the same molecule?
**A.** 3.98 µM

**Q.** And the TGI (MDA-MB-435; read-out: Log TGI (converted))?
**A.** 16.2 µM

**Q.** And the GI50 (HOP-62)?
**A.** 13.2 µM

**Q.** What about the TGI (HOP-62; read-out: Log TGI (converted)) of the same molecule?
**A.** 30.2 µM

**Q.** What about the GI50 (OVCAR-5) of the same molecule?
**A.** 50.1 µM

**Q.** What about the TGI (OVCAR-5; read-out: Log TGI (converted)) of the same molecule?
**A.** > 100 µM

**Q.** And the GI50 (SNB-75)?
**A.** 24 µM

**Q.** What about the TGI (SNB-75; read-out: Log TGI (converted)) of the same molecule?
**A.** 66.1 µM

**Q.** And the GI50 (EKVX)?
**A.** 17 µM

**Q.** And the TGI (EKVX; read-out: Log TGI (converted))?
**A.** 57.5 µM

**Q.** What about the GI50 (SK-OV-3) of the same molecule?
**A.** 57.5 µM

**Q.** What about the TGI (SK-OV-3; read-out: Log TGI (converted)) of the same molecule?
**A.** > 100 µM

**Q.** What about the GI50 (SK-MEL-5) of the same molecule?
**A.** 8.91 µM

**Q.** What about the TGI (SK-MEL-5; read-out: Log TGI (converted)) of the same molecule?
**A.** 42.7 µM

**Q.** What about the GI50 (HCC 2998) of the same molecule?
**A.** 10 µM

**Q.** What about the TGI (HCC 2998; read-out: Log TGI (converted)) of the same molecule?
**A.** 34.7 µM

**Q.** And the GI50 (KM12)?
**A.** 8.91 µM

**Q.** And the TGI (KM12; read-out: Log TGI (converted))?
**A.** > 100 µM

**Q.** What about the GI50 (RXF 393) of the same molecule?
**A.** 19.1 µM

**Q.** What about the TGI (RXF 393; read-out: Log TGI (converted)) of the same molecule?
**A.** 67.6 µM

**Q.** What about the GI50 (Hs-578T) of the same molecule?
**A.** 11.5 µM

**Q.** And the TGI (Hs-578T; read-out: Log TGI (converted))?
**A.** 45.7 µM

**Q.** What about the GI50 (DU-145) of the same molecule?
**A.** 17.8 µM

**Q.** What about the TGI (DU-145; read-out: Log TGI (converted)) of the same molecule?
**A.** 47.9 µM

**Q.** What about the GI50 (NCI-H460) of the same molecule?
**A.** > 100 µM

**Q.** And the TGI (NCI-H460; read-out: Log TGI (converted))?
**A.** > 100 µM

**Q.** What about the GI50 (OVCAR-3) of the same molecule?
**A.** 15.8 µM

**Q.** What about the TGI (OVCAR-3; read-out: Log TGI (converted)) of the same molecule?
**A.** 58.9 µM

**Q.** What about the GI50 (MDA-MB-231) of the same molecule?
**A.** 16.2 µM

**Q.** And the TGI (MDA-MB-231; read-out: Log TGI (converted))?
**A.** 40.7 µM

**Q.** What about the GI50 (SNB-19) of the same molecule?
**A.** 31.6 µM

**Q.** And the TGI (SNB-19; read-out: Log TGI (converted))?
**A.** > 100 µM

**Q.** What about the GI50 (HCT-116) of the same molecule?
**A.** 4.57 µM

**Q.** What about the TGI (HCT-116; read-out: Log TGI (converted)) of the same molecule?
**A.** 15.8 µM

**Q.** What about the GI50 (SF-268) of the same molecule?
**A.** > 100 µM

**Q.** And the TGI (SF-268; read-out: Log TGI (converted))?
**A.** > 100 µM

**Q.** What about the GI50 (SK-MEL-28) of the same molecule?
**A.** 41.7 µM

**Q.** What about the TGI (SK-MEL-28; read-out: Log TGI (converted)) of the same molecule?
**A.** > 100 µM

**Q.** What about the GI50 (SF-539) of the same molecule?
**A.** 11.2 µM

**Q.** And the TGI (SF-539; read-out: Log TGI (converted))?
**A.** 24.5 µM

**Q.** And the GI50 (OVCAR-8)?
**A.** 11.5 µM

**Q.** What about the TGI (OVCAR-8; read-out: Log TGI (converted)) of the same molecule?
**A.** 38 µM

**Q.** What about the GI50 (NCI-H23) of the same molecule?
**A.** 19.5 µM

**Q.** And the TGI (NCI-H23; read-out: Log TGI (converted))?
**A.** 52.5 µM

**Q.** And the GI50 (NCI-H522)?
**A.** 22.9 µM

**Q.** What about the TGI (NCI-H522; read-out: Log TGI (converted)) of the same molecule?
**A.** > 100 µM

**Q.** And the GI50 (PC-3)?
**A.** 13.5 µM

**Q.** And the TGI (PC-3; read-out: Log TGI (converted))?
**A.** 93.3 µM

**Q.** And the GI50 (M14)?
**A.** 15.1 µM

**Q.** And the TGI (M14; read-out: Log TGI (converted))?
**A.** 72.4 µM

**Q.** What about the GI50 (CCRF-CEM) of the same molecule?
**A.** 9.55 µM

**Q.** And the TGI (CCRF-CEM; read-out: Log TGI (converted))?
**A.** > 100 µM

**Q.** And the GI50 (IGROV-1)?
**A.** 3.98 µM

**Q.** And the TGI (IGROV-1; read-out: Log TGI (converted))?
**A.** 26.9 µM

**Q.** What about the GI50 (SN12C) of the same molecule?
**A.** 20.9 µM

**Q.** What about the TGI (SN12C; read-out: Log TGI (converted)) of the same molecule?
**A.** 49 µM

**Q.** What about the GI50 (MCF7) of the same molecule?
**A.** 29.5 µM

**Q.** What about the TGI (MCF7; read-out: Log TGI (converted)) of the same molecule?
**A.** > 100 µM

**Q.** What about the GI50 (HT-29) of the same molecule?
**A.** 16.2 µM

**Q.** What about the TGI (HT-29; read-out: Log TGI (converted)) of the same molecule?
**A.** > 100 µM

**Q.** What about the GI50 (UACC-257) of the same molecule?
**A.** 24 µM

**Q.** And the TGI (UACC-257; read-out: Log TGI (converted))?
**A.** 97.7 µM
